From patent US12324802B2, “Modulators of cystic fibrosis transmembrane conductance regulator” (Vertex Pharmaceuticals Incorporated, priority 2020, dated 2025)
pEC50: −log10 of the molar value.

What follows are compounds tested against T1, CFTR (F508del/MF-HBE cells) (Homo sapiens, UniProt P13569, DEL508-508) (assay: Ussing chamber assay of CFTR-mediated short-circuit currents (identification of potentiator compounds)). Conditions: CFTR-mediated ISC in F508del/MF-HBE cells; incubated 18-24 hours at 37° C. with 10 μM (14S)-8-[3-(2-{dispiro[2.0.2.1]heptan-7-yl}ethoxy)-1H-pyrazol-1-yl]-...-2,2,4-trione, 20% human serum.
T1 construct: human bronchial epithelial (HBE) cells derived from CF subjects heterozygous for F508del and a minimal function CFTR mutation; endogenous in cells; host or cells: primary human bronchial epithelial cells from CF subjects (F508del/MF genotype)
Format: cell-based
Method: Ussing Chamber Assay of CFTR-Mediated Short-Circuit Currents
Ussing chamber experiments were performed using human bronchial epithelial (HBE) cells derived from CF subjects heterozygous for F508del and a minimal function CFTR mutation (F508del/MF-HBE) and cultured as previously described (Neuberger T, Burton B, Clark H, Van Goor F Methods Mol Biol 2011:741:39-54). After four days the apical media was removed, and the cells were grown at an air liquid interface for >14 days prior to use.
To isolate the CFTR-mediated short-circuit (ISC) current, F508del/MF-HBE grown on Costar® Snapwell™ cell culture inserts were mounted in an Ussing chamber and the transepithelial ISC was measured under voltage-clamp recording conditions (Vhold=0 mV) at 37° C. The basolateral solution contained (in mM) 145 NaCl, 0.83 K2HPO4, 3.3 KH2PO4, 1.2 MgCl2, 1.2 CaCl2), 10 Glucose, 10 HEPES (pH adjusted to 7.4 with NaOH) and the apical solution contained (in mM) 145 NaGluconate, 1.2 MgCl2, 1.2 CaCl2), 10 glucose, 10 HEPES (pH adjusted to 7.4 with NaOH) and 30 μM amiloride to block the epithelial sodium channel. Forskolin (20 μM) was added to the apical surface to activate CFTR, followed by apical addition of a CFTR inhibitor cocktail consisting of BPO, GlyH-101 and CFTR inhibitor 172 (each at 20 μM final assay concentration) to specifically isolate CFTR currents. The CFTR-mediated ISC (μA/cm^2) for each condition was determined from the peak forskolin response to the steady-state current following inhibition.
Identification of Potentiator Compounds
The activity of the CFTR potentiator compounds on the CFTR-mediated ISC was determined in Ussing chamber studies as described above. The F508del/MF-HBE cell cultures were incubated with the potentiator compounds at a range of concentrations in combination with 10 μM (14S)-8-[3-(2-{dispiro[2.0.2.1]heptan-7-yl}ethoxy)-1H-pyrazol-1-yl]-12,12-dimethyl-2λ^6-thia-3,9,11,18,23-pentaazatetracyclo [17.3.1.111,14.05,10]tetracosa-1(22),5,7,9,19(23),20-hexaene-2,2,4-trione for 18-24 hours at 37° C. and in the presence of 20% human serum. The concentration of potentiator compounds and (14S)-8-[3-(2-{dispiro[2.0.2.1]heptan-7-yl}ethoxy)-1H-pyrazol-1-yl]-12,12-dimethyl-2λ^6-thia-3,9,11,18,23-pentaazatetracyclo [17.3.1.111,14.05,10]tetracosa-1(22),5,7,9,19(23),20-hexaene-2,2,4-trione used during the 18-24 hours incubations was kept constant throughout the Ussing chamber measurement of the CFTR-mediated ISC to ensure compounds were present throughout the entire experiment. The efficacy and potency of the putative F508del potentiators was compared to that of the known Vertex potentiator, ivacaftor (N-[2,4-bis(1,1-dimethylethyl)-5-hydroxyphenyl]-1,4-dihydro-4-oxoquinoline-3-carboxamide).

T1 sequence (P13569 with tags, fused parts or gaps DEL508-508): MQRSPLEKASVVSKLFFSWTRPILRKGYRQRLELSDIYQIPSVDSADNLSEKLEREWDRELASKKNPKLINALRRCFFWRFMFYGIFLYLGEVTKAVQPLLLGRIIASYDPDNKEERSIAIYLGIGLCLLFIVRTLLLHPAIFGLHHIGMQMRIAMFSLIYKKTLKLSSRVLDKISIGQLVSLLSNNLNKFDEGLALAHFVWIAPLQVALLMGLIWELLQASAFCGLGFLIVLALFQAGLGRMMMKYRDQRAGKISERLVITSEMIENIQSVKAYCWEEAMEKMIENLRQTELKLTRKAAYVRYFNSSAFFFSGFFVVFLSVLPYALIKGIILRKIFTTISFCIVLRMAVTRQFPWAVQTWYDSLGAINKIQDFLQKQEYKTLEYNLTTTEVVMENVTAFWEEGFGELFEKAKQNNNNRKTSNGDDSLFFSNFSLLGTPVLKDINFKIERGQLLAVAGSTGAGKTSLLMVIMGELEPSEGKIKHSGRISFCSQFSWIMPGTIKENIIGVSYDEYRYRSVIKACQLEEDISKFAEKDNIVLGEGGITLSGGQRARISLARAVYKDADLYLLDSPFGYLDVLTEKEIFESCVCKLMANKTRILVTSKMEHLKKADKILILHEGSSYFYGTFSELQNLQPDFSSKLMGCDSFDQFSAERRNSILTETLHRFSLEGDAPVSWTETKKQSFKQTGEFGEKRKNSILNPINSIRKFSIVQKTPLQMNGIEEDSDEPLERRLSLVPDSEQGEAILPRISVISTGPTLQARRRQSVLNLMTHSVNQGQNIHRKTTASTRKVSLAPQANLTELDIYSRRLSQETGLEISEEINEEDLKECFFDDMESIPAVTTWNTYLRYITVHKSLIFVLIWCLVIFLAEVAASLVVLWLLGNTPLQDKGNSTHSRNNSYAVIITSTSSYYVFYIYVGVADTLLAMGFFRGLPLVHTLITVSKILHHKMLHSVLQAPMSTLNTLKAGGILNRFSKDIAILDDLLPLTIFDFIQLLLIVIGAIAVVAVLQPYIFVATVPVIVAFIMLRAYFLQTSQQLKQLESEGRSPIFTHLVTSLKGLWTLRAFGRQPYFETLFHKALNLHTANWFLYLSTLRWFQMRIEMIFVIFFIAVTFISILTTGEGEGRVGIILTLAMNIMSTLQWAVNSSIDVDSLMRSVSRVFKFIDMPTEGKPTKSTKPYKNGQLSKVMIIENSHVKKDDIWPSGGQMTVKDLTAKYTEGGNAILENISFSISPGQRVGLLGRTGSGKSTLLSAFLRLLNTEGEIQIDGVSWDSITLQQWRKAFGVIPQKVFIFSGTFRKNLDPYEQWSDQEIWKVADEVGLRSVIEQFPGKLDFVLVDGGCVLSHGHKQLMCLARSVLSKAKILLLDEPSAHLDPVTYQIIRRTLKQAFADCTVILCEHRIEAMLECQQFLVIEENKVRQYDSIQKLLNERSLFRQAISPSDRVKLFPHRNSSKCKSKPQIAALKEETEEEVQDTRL

Structure (SMILES)	pEC50
CN1CCCCCCC(O)(C(F)(F)F)C2=NN=C(O2)c2nc1c(S(C)(=O)=O)cc2N (single isomer, unassigned) [Compound 40, 17-amino-13-methyl-15-methylsulfonyl-6-(trifluoromethyl)-19-oxa-3,4,13,18-tetrazatricyclo[12.3.1.12,5]nonadeca-1(18),2,4,14,16-pentaen-6-ol]	6.00 to 6.30
CN1CCN(C)c2nc(c(N)cc2C(F)(F)F)C2=NN=C(O2)C(O)(C(F)(F)F)CCC1=O (single isomer, unassigned) [Compound 44, 17-amino-6-hydroxy-10,13-dimethyl-6,15-bis(trifluoromethyl)-19-oxa-3,4,10,13,18-pentazatricyclo[12.3.1.12,5]nonadeca-1(18),2,4,14,16-pentaen-9-one]	6.00 to 6.30
CNC(=O)CN1CCCCCCC(O)(C(F)(F)F)C2=NN=C(O2)c2nc1c(C(F)(F)F)cc2N (single isomer, unassigned) [Compound 48, 2-[17-amino-6-hydroxy-6,15-bis(trifluoromethyl)-19-oxa-3,4,13,18-tetrazatricyclo[12.3.1.12,5]nonadeca-1(18),2,4,14,16-pentaen-13-yl]-N-methyl-acetamide]	> 6.30
Cc1cc(N)c2nc1N1CCC[C@H]1CCCCCC(O)(C(F)(F)F)C1=NN=C2O1 (single isomer, unassigned) [Compound 51]	> 6.30
CC(C)N1CCCCCCC(O)(C(F)(F)F)C2=NN=C(O2)c2nc1c(C(F)(F)F)cc2N (single isomer, unassigned) [Compound 52, 17-amino-13-isopropyl-6,15-bis(trifluoromethyl)-19-oxa-3,4,13,18-tetrazatricyclo[12.3.1.12,5]nonadeca-1(18),2,4,14,16-pentaen-6-ol]	> 6.30
CC(C)N1CCCCCCC(O)(C(F)(F)F)C2=NN=C(O2)c2nc1c(C(F)(F)F)cc2N (single isomer, unassigned) [Compound 53, 17-amino-13-isopropyl-6,15-bis(trifluoromethyl)-19-oxa-3,4,13,18-tetrazatricyclo[12.3.1.12,5]nonadeca-1(18),2,4,14,16-pentaen-6-ol]	< 6.00
Nc1cc(C(F)(F)F)c2nc1-c1nnc(o1)C(O)(C(F)(F)F)CCCCC[C@@H]1COCCN21 (single isomer, unassigned) [Compound 54]	> 6.30
Nc1cc(C(F)(F)F)c2nc1-c1nnc(o1)C(O)(C(F)(F)F)CCCCC[C@@H]1COCCN21 (single isomer, unassigned) [Compound 55]	< 6.00

More lines, now with the values ahead:

pEC50	Structure (SMILES)
> 6.30	CN1CCCCCCC(O)(C(F)(F)F)C2=NN=C(O2)c2nc1c(S(C)(=O)=O)cc2N (single isomer, unassigned) [Compound 39, 17-amino-13-methyl-15-methylsulfonyl-6-(trifluoromethyl)-19-oxa-3,4,13,18-tetrazatricyclo[12.3.1.12,5]nonadeca-1(18),2,4,14,16-pentaen-6-ol]
> 6.30	Nc1cc(C(F)(F)F)c2nc1-c1nnc(o1)C(O)(C(F)(F)F)CCCCCCN2CCO (single isomer, unassigned) [Compound 41, 17-amino-13-(2-hydroxyethyl)-6,15-bis(trifluoromethyl)-19-oxa-3,4,13,18-tetrazatricyclo[12.3.1.12,5]nonadeca-1(18),2,4,14,16-pentaen-6-ol]
> 6.30	CC1(O)CCCCC[C@@H]2CCCN2c2nc(c(N)cc2C(F)(F)F)C2=NN=C1O2 (single isomer, unassigned) [Compound 45]
> 6.30	CCOC(=O)CN1CCCCCCC(O)(C(F)(F)F)C2=NN=C(O2)c2nc1c(C(F)(F)F)cc2N (single isomer, unassigned) [Compound 46, ethyl 2-[17-amino-6-hydroxy-6,15-bis(trifluoromethyl)-19-oxa-3,4,13,18-tetrazatricyclo[12.3.1.12,5]nonadeca-1(18),2,4,14,16-pentaen-13-yl]acetate]
